Measured values from patent US7098195B2, “Fluorinated glucosamine analogs useful for modulating post-translational glycosylations on cells” (Health Research, Inc., priority 2001, dated 2006).
Marks after values point to notes of the source that are not given here.

Columns and labels:
HECA-452 epitopes = experiment: Flow cytometric analysis of HECA-452 epitopes on human T-lymphocytes; type: cell-based; settings: CLA+ T-cells, neuraminidase (1 hr)
Description: Only positive cells, which were those cells with fluorescence above background autofluorescence and fluorochrome-conjugated secondary Ab staining, were analyzed.
For analysis of CLA expression on T-cells treated with glycoconjugate modifiers, CLA^+ T-cells were first pretreated with neuraminidase (0.1 U/ml at 37° C. for 1 h) to eliminate functional CLA and cleave all HECA-452 reactive epitopes from the cell surface (35–38). Since we wanted to investigate whether these compounds directly affected CLA expression and function, neuraminidase pretreatment followed by incubations with glycosylation modifiers allowed for examination of de novo synthesized CLA/HECA-452 epitopes re-expressed on the cell surface. After neuraminidase digestion, cells were then incubated with tunicamycin (0.02 mM) (an inhibitor of GlcNAc phosphotransferase, the initial step of N-glycosylation), swainsonine (0.23 mM) (an inhibitor of α-mannosidase II and complex-type N-glycosylation), 4-F-GlcNAc (0.05 mM) (putative inhibitor of poly-N-acetyllactosamine biosynthesis), BAG (an inhibitor of O-glycan biosynthesis) (<2 mM) or GlcNAc (5 mM) (negative control, naturally-occurring metabolic counterpart of 4-F-GlcNAc)for 30 h in the presence of human recombinant IL-2. […] Concentrations for BAG were selected based on maximal O-glycosylation inhibitory effects at non-growth inhibitory concentrations as previously reported (39). To determine a suitable concentration of 4-F-GlcNAc for examining glycoconjugate-modifying effects without influencing cell growth or protein synthesis, we performed preliminary growth inhibitory experiments of cells incubated with 4-F-GlcNAc for 2 cell doublings (˜36 h) at 37° C. (cell viability assessed by Trypan-blue exclusion).
Flow cytometric analysis was performed on human leukocytes utilizing both direct and indirect immunofluorescence staining approaches. All cells utilized for these experiments were washed twice with cold PBS/2%FBS and suspended at 10^7/ml PBS/1% FBS. Primary antibodies, anti-CLA (HECA-452), -CD4, -CD8, CD43 (L60) and PSGL-1 (PL-2) along with the appropriate isotype-matched control antibodies were incubated with the cells for 30 min on ice. Following two washes with PBS/2%FBS, cells were resuspended in PBS/1%FBS and fluorochrome-conjugated secondary antibodies (2 μl) and incubated for 30 min on ice.

[1] = system: HECA-452 epitopes on human hematopoietic KG1a cells; experiment: Flow cytometric analysis of HECA-452 epitopes on KG1a cells; type: cell-based; settings: KG1a, neuraminidase (1 hr)
Text: (§1) In a similar set of experiments, we analyzed the effects of 4-F-GlcNAc on selectin ligand expression and function on the human hematopoietic cell line KGla. KGla cells express a distinct HECA-452-reactive CD44 glycoform that functions as both an E- and L-selectin ligand (Dimitroff, C. J. et al. (2001) J. Cell Biol., 53: 1277–1286; Dimitroff, C. J. et al. (2000) Proc. Nat. Acad. Sci., 97(25):13841–46; Sackstein, R. and Dimitroff, C. J. (2000) Blood, 96: 2765–74.), otherwise known as HCELL, respectively. This specialized glycoform represents a major E-selectin and the primary L-selectin ligand on normal CD34+ HPCs and on leukemic cells, and, therefore, is also implicated in the BM homing aspects and growth-related activities of HPCs in vivo, respectively (Id.). We first performed flow cytometric analysis of HECA-452 antigen and CD44 on 4-F-GlcNAc-treated KGla cells. […] Only positive cells, which were those cells with fluorescence above background autofluorescence and fluorochrome-conjugated secondary Ab staining, were analyzed.
(§2) Flow cytometric analysis was performed on human leukocytes utilizing both direct and indirect immunofluorescence staining approaches. All cells utilized for these experiments were washed twice with cold PBS/2%FBS and suspended at 10^7/ml PBS/1% FBS. Primary antibodies, anti-CLA (HECA-452), -CD4, -CD8, CD43 (L60) and PSGL-1 (PL-2) along with the appropriate isotype-matched control antibodies were incubated with the cells for 30 min on ice. Following two washes with PBS/2%FBS, cells were resuspended in PBS/1%FBS and fluorochrome-conjugated secondary antibodies (2 μl) and incubated for 30 min on ice. Cells were washed twice with PBS/2%FBS, resuspended in PBS and flow cytometry was performed on a FACScan apparatus equipped with an argon laser tuned at 488 nm (Becton Dickinson).

[2] = system: CD44 on human hematopoietic KG1a cells; experiment: Flow cytometric analysis of CD44 on KG1a cells; type: cell-based; settings: KG1a, neuraminidase (1 hr)
Text: as §1, §2

[3] = system: HCELL/CD44 activity on human hematopoietic KG1a cells; experiment: Stamper-Woodruff adhesion assay, L-selectin-dependent lymphocyte adherence to KG1a cells; type: cell-based; settings: KG1a, neuraminidase (1 hr)
Text: To study the effects of 4-F-GlcNAc on the function of the L-selectin binding activity of CD44 (HCELL), we employed the shear-based, Stamper-Woodruff adhesion assay to examine the ability of 4-F-GlcNAc-treated KG1a cells to support L-selectin-dependent lymphocyte adherence. This assay is utilized to specifically assess the shear-dependent binding interactions between L-selectin naturally expressed on lymphocytes and HCELL expressed on KG1a cells (Dimitroff, C. J. et al. (2000) Proc. Nat. Acad. Sci., 97(25):13841–46; Sackstein, R. and Dimitroff, C. J. (2000) Blood, 96: 2765–74.). Before treating KG1a cells with 0.05, 0.1 or 0.5 mM 4-F-GlcNAc, we first pretreated KG1a cells with Vibrio cholerae neuraminidase (0.1 U/ml for 1 hr at 37° C.) to cleave all terminal α2,3 sialic acid-bearing residues and eliminate all HCELL activity. Glutaraldehyde-fixed monolayers of KG1a cells that were first treated with Vibrio cholerae neuraminidase (0.1 U/ml for 1 hr at 37° C.) then re-cultured in the presence of 4-F-GlcNAc (0.05–0.5 mM) for 30 hr at 37° C. Metabolic inhibitors swainsonine, an inhibitor of α-mannosidase II, tunicamycin, an inhibitor of N-acetylglucosamine phosphototransferase, were also utilized to compare the relative potencies of known glycosylation inhibitors. Human peripheral blood lymphocytes (5×10^6cells/ml RPMI1640 w/o NaBicarbonate/5%FBS) were overlayed onto KG1a monolayers at 80 rpm for 30 min. at 4° C., and after gently washing in PBS, lymphocytes bound to cell monolayers were fixed in 3% glutaraldehyde. Re-expression of HCELL activity or HECA-452-reactive CD44 on KG1a cells was determined after […] of 4-F-GlcNAc treatment. Bound lymphocytes were quantified at 100× magnification from a minimum of 5 fields from 2 slides, and the mean number of lymphocytes (standard error of the mean) was calculated.

[4] = system: E-selectin ligand activity of murine Th1 cells; experiment: Flow chamber analysis of E-selectin binding on murine Th1 cells; type: cell-based, mouse; settings: neuraminidase treatment alone (0.1 U/ml for 1 hr at 37° C.)
Text: (§3) CD4+ splenocytes were isolated from C57BL-6 mice by anti-murine CD4 L3T4 magnetic bead technology (Miltenyi Biotec) according to manufacturer's protocol. […] Culturing murine T helper cells in the presence of murine IL-12 and anti-murine IL-4 produces selectin binding Th1 cells by up-regulating FucTVII (69, 70) and core 2 enzyme (43–45, 71, 72), both critical for selectin ligand synthesis (i.e. decoration of PSGL-1 (67, 68)), and prevents the production of non-selectin binding Th2 cells (67–72). Th1 cells were also generated from mice deficient in α1,3 fucosyltransferase, FucTVII, and served as negative controls (33, 38, 40). Cells were harvested and re-plated at 2×10^6cells/ml on non-Ab coated plastic with murine IL-2 (20 ng/ml) in the presence or absence of murine IL-12 (10 ng/ml) and anti-murine IL-4 moAb 11B11 (10 μg/ml) for 48 h. […] Glycosylation inhibitors were added to cultures on day 6.5 for 30 hr, after first treating cells with neuraminidase (0.1 U/ml for 1 hr at 37° C.) to remove all cell surface terminal sialic acid resides and E and P-selectin ligand activity. Since selectin ligands are dependent on terminal sialic acid (α2,3 N-acetylneuraminic acid) for activity, this approach allowed for analysis of de novo synthesized selectin ligands in the presence of 0.05 mM 4-F-GlcNAc, N-glycan inhibitors, 0.23 mM swainsonine and 0.02 mM tunicamycin, and 1 mM GlcNAc (negative control).

[5] = system: P-selectin ligand activity of murine Th1 cells; experiment: Flow chamber analysis of P-selectin binding on murine Th1 cells; type: cell-based, mouse; settings: neuraminidase treatment alone (0.1 U/ml for 1 hr at 37° C.)
Text: as §3

neuraminidase: Vibrio cholerae neuraminidase, cleaves terminal sialic acid residues
HECA-452 Mean Channel Fluorescence (HECA-452 epitopes): 27 | HECA-452 Mean Channel Fluorescence [1]: 43 | CD44 % Positive Cell Staining [2]: 100% | % Inhibition (lymphocyte binding) [3]: 98* % | Mean Lymphocyte Binding [3]: 4.2 | E-selectin ligand activity of Th1 cells [4]: decreased E and P-selectin ligand activity to baseline levels | P-selectin ligand activity of Th1 cells [5]: decreased E and P-selectin ligand activity to baseline levels
